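These data come from cells grown in 96-well plates and exposed to compound for 48 hours at five concentrations. GI50 is the concentration that inhibits growth by half.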 Active and inactive are the calls of the source. No stated cut-off is given here; in the data, active = GI50 up to about 1.1 µM and inactive = higher.
What was measured:
Assay in all cases: growth of human tumour cells (NCI), 48 h
UO-31 = test system: UO-31
NCI/ADR-RES = test system: NCI/ADR-RES
TK-10 = test system: TK-10
U-251 = test system: U-251
ACHN = test system: ACHN
NCI-H23 = test system: NCI-H23
SN12C = test system: SN12C
MCF7 = test system: MCF7
UACC-257 = test system: UACC-257
SNB-75 = test system: SNB-75
T47D = test system: T47D
IGROV-1 = test system: IGROV-1
LOX IMVI = test system: LOX IMVI
HL-60 = test system: HL-60
SNB-19 = test system: SNB-19
NCI-H460 = test system: NCI-H460
KM12 = test system: KM12
CCRF-CEM = test system: CCRF-CEM
HCC 2998 = test system: HCC 2998

Measured: GI50

COC(=O)C1CCC(=O)N1CN(C(C)=O)c1cccc(O)c1 (configuration not stated)
inactive: UO-31 > 100 µM | NCI/ADR-RES > 100 µM | TK-10 > 100 µM | U-251 > 100 µM | ACHN > 100 µM | NCI-H23 > 100 µM | SN12C > 100 µM | MCF7 > 100 µM | UACC-257 > 100 µM | SNB-75 > 100 µM | T47D > 100 µM | IGROV-1 > 100 µM | LOX IMVI > 100 µM | HL-60 > 100 µM | SNB-19 > 100 µM | NCI-H460 > 100 µM | KM12 > 100 µM

O=[N+]([O-])CCc1cccc([N+](=O)[O-])c1
inactive: UO-31 > 100 µM | CCRF-CEM > 100 µM | TK-10 > 100 µM | U-251 > 100 µM | ACHN > 100 µM | NCI-H23 > 100 µM | SN12C > 100 µM | UACC-257 > 100 µM | SNB-75 > 100 µM | IGROV-1 > 100 µM | HCC 2998 > 100 µM | LOX IMVI > 100 µM | HL-60 > 100 µM | SNB-19 > 100 µM | NCI-H460 > 100 µM | KM12 > 100 µM

C#CCNC(=O)NC(CCCNC(=O)OCc1ccccc1)C(=O)OCc1ccccc1 (configuration not stated)
inactive: UO-31 > 100 µM | CCRF-CEM > 100 µM | TK-10 > 100 µM | U-251 > 100 µM | ACHN > 100 µM | NCI-H23 > 100 µM | SN12C > 100 µM | UACC-257 27.9 µM | SNB-75 82.4 µM | IGROV-1 > 100 µM | HCC 2998 > 100 µM | LOX IMVI 95.1 µM | HL-60 25.4 µM | SNB-19 > 100 µM | NCI-H460 46.2 µM | KM12 > 100 µM

O=C1N/C(=C\[N+](=O)[O-])c2ccccc21
inactive: UO-31 > 100 µM | CCRF-CEM > 100 µM | TK-10 > 100 µM | U-251 > 100 µM | ACHN > 100 µM | NCI-H23 > 100 µM | SN12C > 100 µM | UACC-257 > 100 µM | SNB-75 25.9 µM | IGROV-1 > 100 µM | HCC 2998 > 100 µM | LOX IMVI > 100 µM | HL-60 > 100 µM | SNB-19 > 100 µM | NCI-H460 > 100 µM | KM12 > 100 µM

CC(=O)O[C@H]1CCC2[C@@H]3CCC4Nc5c(cnn5-c5ccccc5)C[C@]4(C)C3CC[C@@]21C (some centres not stated)
inactive: UO-31 11 µM | CCRF-CEM 7.08 µM | TK-10 19.2 µM | U-251 17.9 µM | ACHN 14.6 µM | NCI-H23 4.83 µM | SN12C 19.1 µM | UACC-257 11.5 µM | SNB-75 4.01 µM | IGROV-1 20.7 µM | HCC 2998 9.55 µM | LOX IMVI 12.8 µM | HL-60 7.64 µM | SNB-19 14.5 µM | NCI-H460 15.8 µM | KM12 17.7 µM

CC(=O)N1c2ccccc2C2=CC3C4C(=O)N(c5ccccc5)C(=O)C4C21C1C(=O)N(c2ccccc2)C(=O)C31 (configuration not stated)
inactive: UO-31 48.3 µM | CCRF-CEM 16.2 µM | TK-10 > 100 µM | U-251 13.9 µM | ACHN 31 µM | NCI-H23 48.2 µM | SN12C 42.7 µM | UACC-257 13.8 µM | SNB-75 31.1 µM | IGROV-1 75.7 µM | HCC 2998 20.7 µM | LOX IMVI 43.9 µM | HL-60 20.7 µM | SNB-19 16.4 µM | NCI-H460 16.8 µM | KM12 35.6 µM

COc1cc2cc3c4c(cc(OC)c(OC)c4c2cc1OC)CCN3C(=O)CCC(=O)NCCCN(C)C
inactive: UO-31 > 100 µM | CCRF-CEM 29.2 µM | TK-10 > 100 µM | U-251 41.9 µM | ACHN > 100 µM | NCI-H23 > 100 µM | SN12C > 100 µM | UACC-257 > 100 µM | SNB-75 10.3 µM | IGROV-1 > 100 µM | HCC 2998 > 100 µM | LOX IMVI 14.3 µM | HL-60 21.7 µM | SNB-19 > 100 µM | NCI-H460 33.1 µM | KM12 67.1 µM

CCOC(=O)N1CCC2(CC1)C[C@](C)(C(C)=O)C(C)O2 (some centres not stated)
inactive: UO-31 > 100 µM | NCI/ADR-RES > 100 µM | TK-10 > 100 µM | U-251 > 100 µM | ACHN > 100 µM | NCI-H23 > 100 µM | MCF7 > 100 µM | UACC-257 > 100 µM | IGROV-1 > 100 µM | HCC 2998 > 100 µM | LOX IMVI > 100 µM | HL-60 2.81 µM | SNB-19 > 100 µM | NCI-H460 > 100 µM | KM12 > 100 µM

CC(C)(O)/C=C\P(=O)(O)O
inactive: NCI/ADR-RES > 100 µM | TK-10 > 100 µM | U-251 > 100 µM | ACHN > 100 µM | NCI-H23 > 100 µM | SN12C > 100 µM | MCF7 > 100 µM | UACC-257 > 100 µM | SNB-75 > 100 µM | T47D 7.1 µM | IGROV-1 > 100 µM | HCC 2998 > 100 µM | LOX IMVI > 100 µM | SNB-19 > 100 µM | NCI-H460 > 100 µM | KM12 > 100 µM

C1CSCCSCCCS[C@@H]2CCCCC2SC1 (some centres not stated)
inactive: UO-31 > 100 µM | CCRF-CEM 20.8 µM | TK-10 > 100 µM | U-251 > 100 µM | ACHN > 100 µM | NCI-H23 > 100 µM | SN12C 72.4 µM | UACC-257 > 100 µM | SNB-75 > 100 µM | IGROV-1 > 100 µM | HCC 2998 > 100 µM | LOX IMVI 24.2 µM | HL-60 44.3 µM | SNB-19 > 100 µM | NCI-H460 44.1 µM | KM12 > 100 µM

COc1cc(NS(C)(=O)=O)ccc1NCc1c2ccccc2nc2ccccc12
inactive: UO-31 19.1 µM | CCRF-CEM 4.18 µM | TK-10 > 100 µM | U-251 76.6 µM | ACHN 29.4 µM | NCI-H23 31 µM | SN12C 28.3 µM | UACC-257 32.9 µM | SNB-75 > 100 µM | IGROV-1 29.4 µM | HCC 2998 40.6 µM | LOX IMVI 23.2 µM | HL-60 13.5 µM | SNB-19 51.8 µM | NCI-H460 34.5 µM | KM12 7.66 µM

COc1ccc(C2=NOP(c3ccccc3)(c3ccccc3)(c3ccccc3)C2)cc1
inactive: UO-31 12.9 µM | CCRF-CEM 7.98 µM | TK-10 > 65.6 µM | U-251 23.5 µM | ACHN 29.3 µM | NCI-H23 19.1 µM | SN12C 29.6 µM | UACC-257 28.8 µM | SNB-75 33 µM | IGROV-1 3.35 µM | HCC 2998 20.9 µM | LOX IMVI 10.1 µM | HL-60 2.13 µM | SNB-19 51.4 µM | NCI-H460 9.31 µM | KM12 34.1 µM

Source: ChEMBL document CHEMBL1201862, “PubChem BioAssay data set” (2004)
